Patent US20220133697A1, “INJECTABLE FORMULATIONS” (Aldeyra Therapeutics, Inc., priority 2018, published 2022)

Key:
[1] = system: endotoxin induced uveitis; assay: rat model of endotoxin induced uveitis, ocular exam scores; assay type: in vivo, female Lewis rats; settings: for retina-choroid scores, within-subject statistical analysis (treatment and time): IVT treatment, compared to vehicle control
Description: (§1) An in vivo study was conducted to assess the efficacy of intravitreal administration of Compound I-5 and I-22 in a rat model of endotoxin induced uveitis, one of the most appropriate models for the study of non-infectious uveitis (NIU) (Smith et al., 1998, Immunol Cell Biol. 76(6):497-512) (Toxikon Study 16-04078-N1). Ocular inflammation was induced in female Lewis rats (n=10/group) by a single, foot pad injection of lipopolysaccharide (LPS) (100 μL) (Herbort et al., 1988, Graefes Arch Clin Exp Ophthalmol. 226(6):553-8). Compound I-5 or I-22 (50 μg) was topically administered (TO) to the eye at hours 1, 3, 7, 10, and 17, after LPS induction, or by a single intravitreal (IVT) injection (25 μg) 1 hour after LPS induction (n=10 per group). Ocular exams were performed six and 24 hours after LPS injection. Anterior segments were scored using a combined Draize and McDonald-Shattuck scoring system, and posterior segments were scored using 0 to 1 (vitreous, optic disc, retinal vasculature) and 0 to 4 (retinal and choroidal hemorrhage, exudation, and detachment) scales. Statistical significance from vehicle control was determined by ANOVA, followed by Tukey's post hoc test. The test compound, e.g., Compound I-22 (5 mg/mL), was administered intravitreally into each eye (25 μg/eye) within one hour of LPS administration. Balanced salt solution (BSS) served as a vehicle control. Retinal exams were performed prior to study start and six and 24 hours following LPS administration and scored using a Combined Draize and McDonald Shadduck scoring system, based on assessments of: (a) Retinal vasculopathy; (2) Retinal hemorrhage, exudate or detachment; and (3) Retinal hemorrhage, exudate or detachment.

MDA adducts = MDA adducts in the LPS-induced uveitis model; assay type: in vivo, female Lewis rats; settings: after TO and IVT administration; data not shown
Description: as §1, with “Compound I-5 or I-22 (50 μg) was topically administered (TO) to the eye at hours 1, 3, 7, 10, and 17, after LPS induction, or by a single intravitreal (IVT) injection (25 μg) 1 hour after LPS induction (n=10 per group). Ocular exams were performed six and 24 hours after LPS injection.” left out, “The test compound, e.g., Compound I-22 (5 mg/mL), was administered intravitreally into each eye (25 μg/eye) within one hour of LPS administration. Balanced salt solution (BSS) served as a vehicle control.” left out

A2E = A2E formation in retinas of abcr-/- mouse knockout model of macular degeneration; assay type: in vivo, mice; settings: 10 mg/kg intraperitoneally daily for 56 days, HPLC, compared with vehicle controls
Description: (§2) A mouse knockout model (abcr−/−) of macular degeneration (MD) was used to test the activities of Compound I-5 and Compound I-22. The retinal transport protein, ABCA4, is not expressed in these mice, allowing retinaldehdye to escape the light cycle and form a toxic metabolite with phosphatidylethanolamine, N-retinylidene-phosphatidylethanolamine (A2E). Mice were treated intraperitoneally (IP) for 56 days with 10 mg/kg Compound I-5 (n=24), Compound I-22 (n=24), or vehicle (n=22), starting at week 10 to 12 of life. An untreated control group (n=12) was sacrificed on the first day of dosing. After treatment, A2E concentrations in retinas were measured by HPLC. Statistical significance from vehicle control was determined by t-test.

[2] = dark adaptation, separate study; assay type: in vivo; settings: systemic (IP) doses 5-fold greater than the effective dose in the A2E study, 56 days; data not shown
[3] = body weight and adverse effects during 56 days daily treatment in the abcr-/- mouse study; assay type: in vivo, mice; settings: daily treatment for 56 days
Description: as §2

diabetic macular edema = assay: rat model of diabetic macular edema (STZ-induced diabetes), retinal histology scores; assay type: in vivo
Description: To assess the effect of Compound I-22 in a rat model of diabetic macular edema (DME), Type 1 diabetes was induced in male brown Norway rats by intraperitoneal administration of streptozotocin (STZ; 55 mg/kg). Forty days after STZ administration, animals were tested for diabetes by testing blood glucose levels.
Animals with diabetes were assigned to groups of ten, to receive either vehicle (HPβCD) or Compound I-22. […] On Day 41 (about Week 6) after STZ induction, animals received a single intravitreal injection of Compound I-22 (3.5 μL; 17.5 μg) or vehicle per eye. On Day 57 (about Week 8) after STZ induction, animals received a second intravitreal injection of Compound I-22 or vehicle.
On Day 70 (about Week 10) after STZ induction, animals were euthanized and retinas were processed for histological examination. Sections (3 to 5 μm) were stained with hematoxylin and eosin and evaluated by light microscopy. Changes in retinal thickness were scored on a 0 to 4 scale, with 0 meaning no changes, 1 meaning minimal changes, 2 meaning mild changes, 3 meaning moderate changes, and 4 meaning severe changes, relative to non-diabetic controls. Six microscopic sections were examined for each eye, and retinas were also assessed and scored by a pathologist for changes in vascularity and neutrophil infiltration.

[4] = single intravitreal (IVT) injection 25 μg 1 hour after LPS, vs. vehicle
[5] = topical (TO) 50 μg at hours 1, 3, 7, 10, 17 after LPS, at 6 hours and 24 hours, compared to vehicle

effect on dark adaptation [2]	Compound	retina-choroid scores, within-subject statistical analysis (treatment and time) [1]	ocular exam scores (total ocular, anterior chamber and retina-choroid inflammation) [1, 4]	ocular exam scores (total ocular, anterior chamber and retina-choroid inflammation) [1, 5]	MDA adducts (MDA adducts)	decrease in formation of A2E (A2E) [%]	drug-related adverse effects [3]	effect on body weight [3]	reduction in retinal vascularity compared to vehicle, statistical significance (diabetic macular edema; intravitreal 17.5 μg per eye on Day 41 and Day 57 after STZ, FIG. 10)	neutrophil infiltration (score 0 to 4) (diabetic macular edema; intravitreal 17.5 μg per eye on Day 41 and Day 57 after STZ, compared to vehicle, p<0.01)	decrease in retinal vascularity score (diabetic macular edema; intravitreal 17.5 μg per eye on Day 41 and Day 57 after STZ, compared to vehicle, p<0.05) [%]	retinal thickness (score 0 to 4) (diabetic macular edema; intravitreal 17.5 μg per eye on Day 41 and Day 57 after STZ, histology Day 70, p<0.01)	tolerability in the retina (diabetic macular edema; intravitreal injection, rat DME model)	retinal inflammation (diabetic macular edema; measured by retinal thickness, neutrophil infiltration and retinal vascular changes)
no effect	CC(C)(O)c1nc2ccc(Cl)cc2cc1N [Compound I-5]	significantly improved	significantly improved	significantly improved	Small, although not significant, reductions	71	nor were any drug-related adverse effects observed	no effect						
	CC(C)(O)c1cc2oc(-c3ccccc3)nc2cc1N [Compound I-22]	significantly improved	significantly improved	significantly improved	Small, although not significant, reductions	69	nor were any drug-related adverse effects observed	no effect	not statistically significant	significant reduction	36	significant reduction	well tolerated	decreased
